In patent publication US5145954A, “Derivatives of alphaphenylacrylic acid and their use in agriculture” (Imperial Chemical Industries PLC, priority 1986, dated 1992):

Legend:
Format in all cases: in vivo
Pyricularia oryzae = details: 100 ppm foliar spray plus root drench ca. 40 ppm a.i./dry soil; protectant
Venturia inaequalis = assay: foliar fungal disease test on plants, Venturia inaequalis (apple); details: 100 ppm foliar spray plus root drench ca. 40 ppm a.i./dry soil; protectant
Tomato = assay: whole plant screen for plant growth regulating activity, tomato; set-up: key to greening effect, TO* / greening effect, TO^+ / apical damage, TO* / tillering or side shooting, TO* / apical damage, TO^+ / tillering or side shooting, TO^+: Greening effect; Apical damage; Tillering or side shooting; details: after 2-6 weeks
Procedure: (§1) These compounds were tested on a whole plant screen for plant growth regulating activity against six species of plant. The plant species used in this screen are presented in Table VIII with the leaf stage at which they were sprayed.
(§2) A formulation of each chemical was applied at 4000 ppm (4 kg/ha in a 1000 1/ha field volume) using a tracksprayer and a SS8004E (Teejet) nozzle. Additional tests were done on tomatoes at 2000 and 500 ppm.
(§3) After spraying, the plants were grown in a glasshouse with 25° C. day/22° C. night temperatures. The exception to this were the temperate cereals, wheat and barley which were grown in 13°-16° C. day/11°-13° C. night temperatures. Supplementary lighting was supplied when necessary to provide an average photoperiod of 16 hours (14 hours minimum).
(§4) After 2-6 weeks in the glasshouse, depending on species and time of year, the plants were visually assessed for morphological characteristics against a control plant sprayed with a blank formulation.
To- TO Ailsa 2-21/2 leaves

Puccinia recondita = assay: foliar fungal disease test on plants, Puccinia recondita (wheat); details: 100 ppm foliar spray plus root drench ca. 40 ppm a.i./dry soil; protectant
Erysiphe graminis = assay: foliar fungal disease test on plants, Erysiphe graminis (barley); details: 100 ppm foliar spray plus root drench ca. 40 ppm a.i./dry soil; inoculated 24 hours before treatment
Plasmopara viticola = assay: foliar fungal disease test on plants, Plasmopara viticola (vine); details: 100 ppm foliar spray plus root drench ca. 40 ppm a.i./dry soil; protectant
Cercospora arachidicola = assay: foliar fungal disease test on plants, Cercospora arachidicola (peanut); details: 100 ppm foliar spray plus root drench ca. 40 ppm a.i./dry soil; protectant
Maize = assay: whole plant screen for plant growth regulating activity, maize; set-up: key: Greening effect; Apical damage; Tillering or side shooting; details: 4000 ppm (4 kg/ha), after 2-6 weeks
Procedure: as §1, §2, §3, §4

Rice = assay: whole plant screen for plant growth regulating activity, rice; details: 4000 ppm (4 kg/ha), after 2-6 weeks
Procedure: as §1, §2, §3, §4
Rice RC Ishikari 2-21/2 leaves

[1] = test system: Tetranychus urticae (spider mites - adult); assay: insecticidal test TUa, spider mites adult, contact; details: 500 ppm, French bean leaf, duration 3
Procedure: (§5) The activity of the compound was determined using a variety of insect, mite and nematode pests. The compound was used in the form of liquid preparations containing from 100 to 500 parts per million (ppm) by weight of the compound. The preparations were made by dissolving the compound in acetone and diluting the solutions with water containing 0.1% by weight of a wetting agent sold under the trade name "SYNPERONIC" NX until the liquid preparations contained the required concentration of the product. "SYNPERONIC" is a Registered Trade Mark.
(§6) The test procedure adopted with regard to each pest was basically the same and comprised supporting a number of the pests on a medium which was usually a host plant or a foodstuff on which the pests feed, and treating either or both the pests and the medium with the preparations. The mortality of the pests was then assessed at periods usually varying from one to seven days after the treatment. […]

Spodoptera exigua = assay: insecticidal test SP, lesser army worm larvae, residual; details: 500 ppm, cotton leaf, duration 3
Procedure: as §5, §6

Blattella germanica = assay: insecticidal test BG, cockroach nymphs, residual; details: 500 ppm, plastic pot, duration 3
Procedure: as §5, §6

Musca domestica [2] = assay: whole plant or invertebrate
Procedure: A sample of compound 9 was diluted in 2 mls acetone and made up to a 2000 ppm solution with 0.1% aqueous synperonic solution. The solution (1 ml) was then sprayed directly onto twenty mixed sex houseflies held in a drinking cup. Immediately after spraying the cups were inverted and left to dry. An assessment of knockdown was made when the cups were righted 15 minutes later. The flies were then provided with a 10% sucrose solution on a cotton wool pad, and held for 48 hours in a holding room conditioned at 25° C. and 65% relative humidity before a mortality assessment was made.

Meloidogyne incognita = assay: nematode test MI, tomato root knot eelworm larvae, semi in-vitro, residual; details: 125 ppm, duration 7
Procedure: as §5, §6

Myzus persicae = assay: insecticidal test MP, aphids, contact; details: 500 ppm, Chinese cabbage leaf, duration 3
Procedure: as §5, §6

Diabrotica balteata = assay: insecticidal test DB, rootworm larvae, residual; details: 500 ppm, filter paper/maize seed, duration 3
Procedure: as §5, §6

Heliothis virescens = assay: insecticidal test HV, tobacco budworm larvae, residual; details: 500 ppm, cotton leaf, duration 3
Procedure: as §5, §6

[3] = test system: Tetranychus urticae (spider mites - ova); assay: insecticidal test TUe, spider mites ova, contact; details: 500 ppm, French bean leaf, duration 6
Procedure: as §5, §6

Nilaparvata lugens = assay: insecticidal test NL, brown plant hopper nymphs, contact; details: 500 ppm, rice plant, duration 3
Procedure: as §5, §6

Musca domestica [4] = assay: insecticidal test MD, houseflies adults, contact; details: 500 ppm, cotton wool/sugar, duration 1
Procedure: as §5, §6

Wheat = assay: whole plant screen for plant growth regulating activity, wheat; details: 4000 ppm (4 kg/ha), after 2-6 weeks
Procedure: as §1, §2, §3, §4
Wheat WW Timmo 1-1.5 leaves

With `COC(=O)/C(=C/SC)c1ccccc1/C=C/c1ccccc1` [9 of Table I] the “disease control grade, P[…] (Rice)” value (Pyricularia oryzae) was 4, the “disease control grade, VENTURIA INAEQUALIS (Apple)” value (shortened to “disease control grade … (Apple)”) (Venturia inaequalis) was 4 and the “apical damage, TO^+” value (Tomato; 500 ppm) was “A”. For the same compound, the “greening effect, TO^+” value (Tomato; 500 ppm) was “G”, the “tillering or side shooting, TO^+” value (Tomato; 500 ppm) was “T” and the “apical damage, TO*” value (Tomato; 2000 ppm) was “A”. For the same compound, the “greening effect, TO*” value (Tomato; 2000 ppm) was “G”, the “tillering or side shooting, TO*” value (Tomato; 2000 ppm) was “T” and the “disease control grade, PUCCINIA RECONDITA (Wheat)” value (shortened to “disease control grade … (Wheat)”) (Puccinia recondita) was 3 (trace - 5% of disease on untreated plants). The “disease control grade, ERYSIPHE GRAMINIS (Barley)” value (“disease control grade … (Barley)” below) (Erysiphe graminis) was 0 (60-100% of disease on untreated plants), the “disease control grade, PLASMOPARA VITICOLA (Vine)” value (“disease control grade … (Vine)” below) (Plasmopara viticola) was 0 (60-100% of disease on untreated plants) and the “disease control grade, CERCOSPORA ARACHIDICOLA (Peanut)” value (“disease control grade … (Peanut)” below) (Cercospora arachidicola) was 1 (26-59% of disease on untreated plants).

With `COC(=O)/C(=C\SC)c1ccccc1/C=C/c1ccccc1` [10 of Table I] the “disease control grade, P[…] (Rice)” value (Pyricularia oryzae) was 3 (trace - 5% of disease on untreated plants), the “disease control grade … (Apple)” value (Venturia inaequalis) was 4 and the “disease control grade … (Wheat)” value (Puccinia recondita) was 2 (6-25% of disease on untreated plants). The “disease control grade … (Barley)” value (Erysiphe graminis) was 0 (60-100% of disease on untreated plants), the “disease control grade … (Vine)” value (Plasmopara viticola) was 4 and the “disease control grade … (Peanut)” value (Cercospora arachidicola) was 4.

`COC(=O)/C(=C/SC)c1ccccc1CCc1ccc(F)cc1` [96 of Table I] was tested, and the “disease control grade, P[…] (Rice)” value (Pyricularia oryzae) was 0 (60-100% of disease on untreated plants), the “disease control grade … (Apple)” value (Venturia inaequalis) was 3 (trace - 5% of disease on untreated plants) and the “greening effect, TO^+” value (Tomato; 500 ppm) was “G”. The “retardation, TO*” value (Tomato; 2000 ppm) was 1 (10-30%), the “disease control grade … (Wheat)” value (Puccinia recondita) was 0 (60-100% of disease on untreated plants) and the “disease control grade … (Barley)” value (Erysiphe graminis) was 0 (60-100% of disease on untreated plants). The “apical damage, MZ” value (Maize) was “A”, the “greening effect, MZ” value (Maize) was “G” and the “disease control grade … (Vine)” value (Plasmopara viticola) was 0 (60-100% of disease on untreated plants). The “disease control grade … (Peanut)” value (Cercospora arachidicola) was 0 (60-100% of disease on untreated plants).

For `COC(=O)/C(=C\SC)c1ccccc1` [2 of Table I], the “disease control grade, P[…] (Rice)” value (Pyricularia oryzae) was 0 (60-100% of disease on untreated plants), the “disease control grade … (Apple)” value (Venturia inaequalis) was 0 (60-100% of disease on untreated plants) and the “retardation, RC” value (Rice) was 1 (10-30%). For the same compound, the “greening effect, TO^+” value (Tomato; 500 ppm) was “G”, the “retardation, TO^+” value (Tomato; 500 ppm) was 2 (21-60%) and the “greening effect, TO*” value (Tomato; 2000 ppm) was “G”. For the same compound, the “retardation, TO*” value (Tomato; 2000 ppm) was 1 (10-30%), the “disease control grade … (Wheat)” value (Puccinia recondita) was 0 (60-100% of disease on untreated plants) and the “disease control grade … (Barley)” value (Erysiphe graminis) was 0 (60-100% of disease on untreated plants). The “disease control grade … (Vine)” value (Plasmopara viticola) was 1 (26-59% of disease on untreated plants) and the “disease control grade … (Peanut)” value (Cercospora arachidicola) was 0 (60-100% of disease on untreated plants).

In the case of `COC(=O)/C(=C/SC)c1ccccc1/C=C/c1ccccc1` [Compound 9 of Table I], the “grading of mortality, TUA” value [1] is reported as 0 (less than 50% mortality), the “grading of mortality, SP” value (Spodoptera exigua) is reported as 0 (less than 50% mortality) and the “grading of mortality, BG” value (Blattella germanica) is reported as 0 (less than 50% mortality). The knockdown (Musca domestica [2]; 1 ml of 2000 ppm solution sprayed on twenty houseflies, assessed 15 minutes later) was 88%, the mortality at 2000 ppm (Musca domestica [2]; Musca domestica, topical, 48 h, read-out: kill) was 15% and the “grading of root knot reduction, MI*” value (Meloidogyne incognita) was 9 (70-100% root knot reduction as compared to an untreated plant for Meloidogyne incognita). For the same compound, the “grading of mortality, MP” value (Myzus persicae) was 0 (less than 50% mortality), the “grading of mortality, DB” value (Diabrotica balteata) was 5 (50-79% mortality) and the “grading of mortality, HV” value (Heliothis virescens) was 0 (less than 50% mortality). For the same compound, the “grading of mortality, TUE” value [3] was 0 (less than 50% mortality), the “grading of mortality, NL” value (Nilaparvata lugens) was 0 (less than 50% mortality) and the “grading of mortality, MD” value (Musca domestica [4]) was 5 (50-79% mortality).

In the case of `COC(=O)/C(=C/SC)c1ccccc1` [1 of Table I], the “disease control grade, P[…] (Rice)” value (Pyricularia oryzae) is reported as 1 (26-59% of disease on untreated plants), the “disease control grade … (Apple)” value (Venturia inaequalis) is reported as 0 (60-100% of disease on untreated plants) and the “retardation, RC” value (Rice) is reported as 2 (21-60%). For the same compound, the “retardation, TO^+” value (Tomato; 500 ppm) was 1 (10-30%), the “retardation, TO*” value (Tomato; 2000 ppm) was 1 (10-30%) and the “disease control grade … (Wheat)” value (Puccinia recondita) was 0 (60-100% of disease on untreated plants). For the same compound, the “disease control grade … (Barley)” value (Erysiphe graminis) was 0 (60-100% of disease on untreated plants), the “disease control grade … (Vine)” value (Plasmopara viticola) was 0 (60-100% of disease on untreated plants) and the “disease control grade … (Peanut)” value (Cercospora arachidicola) was 0 (60-100% of disease on untreated plants).

In the case of `COC(=O)/C(=C/SC)c1ccccc1Oc1ccccc1` [1 of Table II], the “disease control grade, P[…] (Rice)” value (Pyricularia oryzae) is reported as 2 (6-25% of disease on untreated plants), the “disease control grade … (Apple)” value (Venturia inaequalis) is reported as 4 and the “retardation, WW” value (Wheat) is reported as 1 (10-30%). For the same compound, the “greening effect, TO^+” value (Tomato; 500 ppm) was “G”, the “retardation, TO^+” value (Tomato; 500 ppm) was 1 (10-30%) and the “retardation, TO*” value (Tomato; 2000 ppm) was 1 (10-30%). For the same compound, the “disease control grade … (Wheat)” value (Puccinia recondita) was 4, the “disease control grade … (Barley)” value (Erysiphe graminis) was 3 (trace - 5% of disease on untreated plants) and the “disease control grade … (Vine)” value (Plasmopara viticola) was 4. For the same compound, the “disease control grade … (Peanut)” value (Cercospora arachidicola) was 0 (60-100% of disease on untreated plants).
